In patent US20230265104A1, “NOVEL HETEROCYCLIC COMPOUNDS” (PRISM BIOLAB CO., LTD., priority 2020, published 2023):

Test system: PANC-1 (human pancreatic cancer-derived cell line)
Assay: MTS assay on Panc-1 (human pancreas carcinoma cell line)
Format: cell-based
Conditions: 144 h; for IC50: PANC-1, MTS method, cell survival 6 days after exposure, 4-parameter logistic fit; for inhibition at 30 µM / inhibition at 0.625 µM / inhibition at 1 µM / inhibition at 10 µM: PANC-1, MTS, 6 days; for inhibition at 30 µM: read-out: Growth inhibition (%) 30 μM; for inhibition at 0.625 µM: read-out: Growth inhibition (%) 0.625 μM; for inhibition at 1 µM: read-out: Growth inhibition (%) 1 μM; for inhibition at 10 µM: read-out: Growth inhibition (%) 10 μM
Experimental: Experimental Example: MTS Assay on Panc-1 (Human Pancreas Carcinoma Cell Line) cell line name: PANC-1 derived from: human pancreas glandular cancer purchased from: ATCC product code: CRL-1469 proliferation medium: D-MEM+10% FBS culture environment: 37° C., 5% CO2 seeding density: 5.0×10^5 cells/25 cm^2 solvent control substance: DMSO (HYBRI-MAX®, Sigma-Aldrich Corp.) test substance: Example compound (ID-1-ID-13) A DMSO solution of the test substance was prepared by serially diluting (common ratio 2) each test substance with DMSO.
A solvent control substance sample and a test substance sample were exposed to a human pancreatic cancer-derived cell line (PANC-1), and the survival rate of the cell 6 days later was measured by the MTS method. The measurement was performed 3 times and the average thereof was adopted. The survival rate of the cell in each test substance sample was calculated by the following formula 1 with the value at exposure of the solvent control substance sample as 100% survival rate. […]
survival rate (%)=100×absorbance of each test substance sample/absorbance of solvent control substance sample formula 1 Normalized values calculated by the following formula 2 from the absorbances of each sample at 492 nm and 630 nm and the absorbances of the blank were used as the absorbances in the above-mentioned formula 1. […]
normalized value (ABS492 nm-630 nm)=(ABSsa 492 nm-ABSsa 630 nm)−(ABSbl 492 nm-ABSbl 630 nm) ABSsa 492: absorbance of each sample at wavelength 492 nm ABSsa 630: absorbance of each sample at wavelength 630 nm ABSbl 492: absorbance of blank corresponding to each sample at wavelength 492 nm ABSbl 630: absorbance of blank corresponding to each sample at wavelength 630 nm formula 2 […]
The analysis was performed by using nplr package on R (The R Foundation for Statistical Computing) and estimating the logistic regression curve (4-parameter).

| SMILES | IC50 [µM] | inhibition at 30 µM [%] | inhibition at 0.625 µM [%] | inhibition at 1 µM [%] | inhibition at 10 µM [%] |
| --- | --- | --- | --- | --- | --- |
| CC(C)C[C@H]1ON(C(=O)/C=C/c2nn(C)c3ccccc23)[C@H]2CN(CCC(N)=O)C(=O)[C@H](CC(C)C)N2C1=O [ID-22, 3-((3R,6S,9aS)-3,6-diisobutyl-1-((E)-3-(1-methyl-1H-indazol-3-yl)acryloyl)-4,7-dioxohexahydropyrazino[2,1-c][1,2,4]oxadiazin-8(1H)-yl)propanamide] | 15.6 | 95.4 |  |  |  |
| CC(C)C[C@H]1ON(C(=O)/C=C/c2nc3ccccc3s2)[C@H]2CN(CCC(N)=O)C(=O)[C@H](CC(C)C)N2C1=O [ID-23, 3-((3R,6S,9aS)-1-((E)-3-(benzo[d]thiazol-2-yl)acryloyl)-3,6-diisobutyl-4,7-dioxohexahydropyrazino[2,1-c][1,2,4]oxadiazin-8(1H)-yl)propanamide] | 0.77 | 102 |  |  |  |
| CC(C)C[C@H]1ON(C(=O)/C=C/c2ccc3ccccc3c2)[C@H]2CN(CCC(N)=O)C(=O)[C@H](CC(C)C)N2C1=O [ID-24, 3-((3R,6S,9aS)-3,6-diisobutyl-1-((E)-3-(naphthalen-2-yl)acryloyl)-4,7-dioxohexahydropyrazino[2,1-c] [1,2,4]oxadiazin-8(1H)-yl)propanamide] | 15.8 | 102 |  |  |  |
| CC(C)(C)C[C@H]1C(=O)N(CC2CCCCC2)C[C@@H]2N(C(=O)/C=C/c3cnc4ccccc4n3)O[C@H](CC3CCCCC3)C(=O)N21 [ID-25, (3R,6S,9aS)-3,8-bis(cyclohexylmethyl)-6-neopentyl-1-((E)-3-(quinoxalin-2-yl)acryloyl)tetrahydropyrazino[2,1-c] [1,2,4]oxadiazine-4,7(3H,6H)-dione] |  | 98.5 | 4.7 | 6 |  |
| CC(C)(C)C[C@H]1C(=O)N(CC2CCNCC2)C[C@@H]2N(C(=O)/C=C/c3cnc4ccccc4n3)O[C@H](CC3CCCCC3)C(=O)N21 [ID-26, (3R,6S,9aS)-3-(cyclohexylmethyl)-6-neopentyl-8-(piperidin-4-ylmethyl)-1-((E)-3-(quinoxalin-2-yl)acryloyl)tetrahydropyrazino[2,1-c][1,2,4]oxadiazine-4,7(3H,6H)-dione] |  |  | 4.2 | 96.1 |  |
| CC(C)C[C@H]1ON(C(=O)/C=C/c2ccccn2)[C@H]2CN(CCC(=O)Nc3nccs3)C(=O)[C@H](CC(C)C)N2C1=O [ID-27, 3-((3R,6S,9aS)-3,6-diisobutyl-4,7-dioxo-1-((E)-3-(pyridin-2-yl)acryloyl)hexahydropyrazino[2,1-c][1,2,4]oxadiazin-8 (1H)-yl)—N-(thiazol-2-yl)propanamide] | 8.6 | 99.3 |  |  |  |
| CONC(=O)CCN1C[C@@H]2N(C(=O)/C=C/c3ccccn3)O[C@H](CC(C)C)C(=O)N2[C@@H](CC(C)C)C1=O [ID-28, 3-((3R,6S,9aS)-3,6-diisobutyl-4,7-dioxo-1-((E)-3-(pyridin-2-yl)acryloyl)hexahydropyrazino[2,1-c][1,2,4]oxadiazin-8(1H)-yl)—N-methoxypropanamide] | 16.2 | 96.2 |  |  |  |
| CC(C)C[C@H]1ON(C(=O)/C=C/c2nnc(C3CC3)s2)[C@H]2CN(CCC(N)=O)C(=O)[C@H](CC(C)C)N2C1=O [ID-29, 3-((3R,6S,9aS)-1-((E)-3-(5-cyclopropyl-1,3,4-thiadiazol-2-yl)acryloyl)-3,6-diisobutyl-4,7-dioxohexahydropyrazino[2,1-c][1,2,4]oxadiazin-8(1H)-yl)propanamide] | 2.3 |  |  |  | 101 |
| CC(C)C[C@H]1ON(C(=O)/C=C/c2cccc3nccnc23)[C@H]2CN(CCC(N)=O)C(=O)[C@H](CC(C)C)N2C1=O [ID-30, 3-((3R,6S,9aS)-3,6-diisobutyl-4,7-dioxo-1-((E)-3-(quinoxalin-5-yl)acryloyl)hexahydropyrazino[2,1-c][1,2,4]oxadiazin-8 (1H)-yl)propanamide] |  |  |  |  | 58.4 |
